# According to patent US20240140970A1, “A […], AND PREPARATION METHOD AND USE THEREOF” (ASCENTAWITS PHARMACEUTICALS, LTD., priority 2021, published 2024):
# Where “and” joins values, the source holds several entries; their conditions need not be identical. Equal entries are not always repeated.
# What was measured:
# [1] = Freeze/thaw stability of AST-2660 in human plasma (LC-MS/MS); format: in vitro ADME
# Experimental: (§1) The detection method established in example 4 was used to detect the content of AST-2660 in the human plasma to be tested.
# (§2) Matrix: the mixed normal human plasma containing anticoagulant (K2 EDTA) • a: the internal standard working solution: AST-2660-D8 was taken, added with methanol, and diluted to prepare a solution containing about 100 ng per 1 ml. • b: the solution to be tested (no internal standard compound was added to the solution to be tested at this time): it was obtained by taking a blood sample to be tested. • c: the standard working solution (no internal standard compound was added to the standard working solution at this time): an appropriate amount of AST-2660 was taken and accurately weighed, dissolved with methanol, and diluted to prepare a solution containing about 1.0 mg per 1 ml, which was used as the standard working stock solution. An appropriate amount of the standard working stock solution was taken, added with the matrix and diluted to prepare standard working solutions with different concentrations containing about 200 ng, 160 ng, 100 ng, 50 ng, 10 ng, 2.0 ng, 1.0 ng and 0.5 ng per 1 ml, respectively. (The solution was stored at −70° C.) • d: the quality control sample solution: an appropriate amount of AST-2660 was taken and accurately weighed, dissolved with methanol, and diluted to prepare a solution containing about 10 μg per 1 ml, which was used as the quality control working stock solution. An appropriate amount of the quality control working stock solution was taken, added with matrix to prepare quality control working solutions with different concentrations containing about 150 ng, 60 ng, 15 ng, 1.5 ng and 0.5 ng per 1 ml. (The solution was stored at −70° C.)
# (§3) The solution to be tested, the standard working solution and the quality control sample solution were thawed at room temperature and mixed uniformly. 100 μl of the above solution was respectively taken, added with 20 μl of the internal standard and 500 μl of methanol, and vortexed for 3 minutes to mix uniformly, and then centrifuged for 10 minutes at 2143 rcf. 450 μl of the supernatant was taken and dried, and 150 μl of methanol was added for redissolution, and sonicated. Then the plates were centrifuged for 3 minutes at 4° C. It was obtained by taking […] of supernatant.
# (§4) Liquid phase conditions: A SHARC 1, 3 μm, 2.1*50 mm or chromatograph column with equivalent performance was used; the mobile phase was a methanol solution comprising low content of ammonium acetate; the mobile phase B was acetonitrile; the gradient elution was performed according to the following table, column temperature: 20° C.; injection volume: 5 μl.
# (§5) Mass spectrometric conditions: electrospray ion source with negative ion scanning mode; spray potential: −4500 V; ion source temperature: 500° C.; collision energy (CE): −22 eV; declustering potential (DP): −55V; entrance potential (EP): −10V; collision chamber exit potential (CXP): −16V; dwell time: 100 ms; high purity nitrogen was used for all gases; AST-2660 ions pairs: m/z 147.0→m/z 62.9; the internal standard AST-2660-D8 ion pairs: m/z 155.0→m/z 62.9.
# (§6) The AST-2660 standard working solution, blank sample, zero concentration sample, sample solution to be tested and quality control sample solution with different concentrations after extraction were respectively taken and injected into LC-MS/MS for detection.
# (§7) Calculation results: the relationship function y=f (x) of the ratio of the peak area of the AST-2660 to that of the internal standard was obtained from AST-2660 standard working solutions with different concentrations. The ratio of the peak area of the AST-2660 to that of the internal standard was determined from the solution to be tested after extraction, and substituted into the relationship function y=f (x) to calculate the concentration of the metabolite II in the solution to be tested.
# [2] = Experimental table stability of AST-2660 in human plasma at room temperature (LC-MS/MS); format: in vitro ADME; settings: for AST-2660 concentration, Mean value / AST-2660 concentration, single replicates / RE (%) vs nominal: human plasma, room temperature
# Experimental: as §1, §2, §3, §4, §5, §6, §7
# [3] = DilQC (10-fold dilution) nominal 1500 ng/ml, 5 freeze/thaw cycles at −20° C.
# [4] = DilQC (10-fold dilution) nominal 1500 ng/ml, 5 freeze/thaw cycles at −70° C.
# [5] = QC1 nominal 1.50 ng/ml, 5 freeze/thaw cycles at −20° C.
# [6] = QC1 nominal 1.50 ng/ml, 5 freeze/thaw cycles at −70° C.
# [7] = QC4 nominal 150 ng/ml, 5 freeze/thaw cycles at −20° C.
# [8] = QC4 nominal 150 ng/ml, 5 freeze/thaw cycles at −70° C.
# [9] = DilQC (10-fold dilution) nominal 1500 ng/ml, 0 hour
# [10] = DilQC (10-fold dilution) nominal 1500 ng/ml, 4 hours
# [11] = DilQC (10-fold dilution) nominal 1500 ng/ml, 24 hours
# [12] = QC1 nominal 1.50 ng/ml, 4 hours
# [13] = QC1 nominal 1.50 ng/ml, 24 hours
# [14] = QC4 nominal 150 ng/ml, 24 hours
smiles,measurement,setting,value
O=P([O-])(N1CC1)N1CC1.[Na+] [AST-2660],"AST-2660 concentration, Mean value",[1]; [3],1288 ng/mL
same,"AST-2660 concentration, single replicates",[1]; [3],1310 ng/ml (2×) and 1250 ng/ml and 1280 ng/ml
same,RE (%) vs nominal,[1]; [3],−14.2%
same,"AST-2660 concentration, Mean value",[1]; [4],1540 ng/mL
same,"AST-2660 concentration, single replicates",[1]; [4],1650 ng/ml and 1500 ng/ml (2×) and 1510 ng/ml
same,RE (%) vs nominal,[1]; [4],2.7%
same,"AST-2660 concentration, Mean value",[1]; [5],1.13 ng/mL
same,"AST-2660 concentration, single replicates",[1]; [5],1.13 ng/mL and 1.18 ng/mL and 1.14 ng/mL and 1.06 ng/mL
same,RE (%) vs nominal,[1]; [5],−24.8%
same,"AST-2660 concentration, Mean value",[1]; [6],1.60 ng/mL
same,"AST-2660 concentration, single replicates",[1]; [6],1.69 ng/mL and 1.72 ng/mL and 1.47 ng/mL and 1.51 ng/mL
same,RE (%) vs nominal,[1]; [6],6.5%
same,"AST-2660 concentration, Mean value",[1]; [7],140 ng/mL
same,"AST-2660 concentration, single replicates",[1]; [7],136 ng/mL and 138 ng/mL and 152 ng/mL and 132 ng/mL
same,RE (%) vs nominal,[1]; [7],−7.0%
same,"AST-2660 concentration, Mean value",[1]; [8],149 ng/mL
same,"AST-2660 concentration, single replicates",[1]; [8],145 ng/ml and 148 ng/ml (2×) and 154 ng/ml
same,RE (%) vs nominal,[1]; [8],−0.8%
same,change of AST-2660 content (in words),[1]; freeze-thaw process from −20° C. to room temperature,reduced significantly
same,change of AST-2660 content (in words),[1]; freeze-thaw process from −70° C. to room temperature,almost no reduction
same,stability (in words),[2]; human plasma samples at room temperature,not stable
same,"AST-2660 concentration, Mean value",[2]; [9],1680 ng/mL
same,"AST-2660 concentration, single replicates",[2]; [9],1610 ng/mL and 1770 ng/mL and 1700 ng/mL and 1640 ng/mL
same,RE (%) vs nominal,[2]; [9],12.0%
same,"AST-2660 concentration, Mean value",[2]; [10],1593 ng/mL
same,"AST-2660 concentration, single replicates",[2]; [10],1500 ng/mL and 1710 ng/mL and 1600 ng/mL and 1560 ng/mL
same,RE (%) vs nominal,[2]; [10],6.2%
same,"AST-2660 concentration, Mean value",[2]; [11],1455 ng/mL
same,"AST-2660 concentration, single replicates",[2]; [11],1380 ng/mL and 1500 ng/mL and 1480 ng/mL and 1460 ng/mL
same,RE (%) vs nominal,[2]; [11],−3.0%
same,"AST-2660 concentration, Mean value","[2]; QC1 nominal 1.50 ng/ml, 0 hour",1.42 ng/mL
same,"AST-2660 concentration, single replicates","[2]; QC1 nominal 1.50 ng/ml, 0 hour",1.44 ng/mL and 1.32 ng/mL and 1.38 ng/mL and 1.55 ng/mL
same,RE (%) vs nominal,"[2]; QC1 nominal 1.50 ng/ml, 0 hour",−5.2%
same,"AST-2660 concentration, Mean value",[2]; [12],1.35 ng/mL
same,"AST-2660 concentration, single replicates",[2]; [12],1.34 ng/ml (2×) and 1.31 ng/ml and 1.42 ng/ml
same,RE (%) vs nominal,[2]; [12],−9.8%
same,"AST-2660 concentration, Mean value",[2]; [13],1.32 ng/mL
same,"AST-2660 concentration, single replicates",[2]; [13],1.33 ng/mL and 1.28 ng/mL and 1.38 ng/mL and 1.27 ng/mL
same,RE (%) vs nominal,[2]; [13],−12.3%
same,"AST-2660 concentration, Mean value","[2]; QC4 nominal 150 ng/ml, 0 hour",136 ng/mL
same,"AST-2660 concentration, single replicates","[2]; QC4 nominal 150 ng/ml, 0 hour",130 ng/mL and 142 ng/mL and 135 ng/mL and 137 ng/mL
same,RE (%) vs nominal,"[2]; QC4 nominal 150 ng/ml, 0 hour",−9.3%
same,"AST-2660 concentration, Mean value","[2]; QC4 nominal 150 ng/ml, 4 hours",138 ng/mL
same,"AST-2660 concentration, single replicates","[2]; QC4 nominal 150 ng/ml, 4 hours",130 ng/mL and 141 ng/mL and 136 ng/mL and 145 ng/mL
same,RE (%) vs nominal,"[2]; QC4 nominal 150 ng/ml, 4 hours",−8.0%
same,"AST-2660 concentration, Mean value",[2]; [14],125 ng/mL
same,"AST-2660 concentration, single replicates",[2]; [14],117 ng/mL and 128 ng/mL and 124 ng/mL and 129 ng/mL
same,RE (%) vs nominal,[2]; [14],−17.0%
